The source of these data is article PMC3567212 (Biochemistry, 2012).

Substitutions are numbered along the chain they refer to.

The target of assay [1] is T1, Rhizobium etli pyruvate carboxylase (RePC) (Rhizobium etli, UniProt Q2K340, R472K).
T1 sequence (Q2K340 1-1154 R472K): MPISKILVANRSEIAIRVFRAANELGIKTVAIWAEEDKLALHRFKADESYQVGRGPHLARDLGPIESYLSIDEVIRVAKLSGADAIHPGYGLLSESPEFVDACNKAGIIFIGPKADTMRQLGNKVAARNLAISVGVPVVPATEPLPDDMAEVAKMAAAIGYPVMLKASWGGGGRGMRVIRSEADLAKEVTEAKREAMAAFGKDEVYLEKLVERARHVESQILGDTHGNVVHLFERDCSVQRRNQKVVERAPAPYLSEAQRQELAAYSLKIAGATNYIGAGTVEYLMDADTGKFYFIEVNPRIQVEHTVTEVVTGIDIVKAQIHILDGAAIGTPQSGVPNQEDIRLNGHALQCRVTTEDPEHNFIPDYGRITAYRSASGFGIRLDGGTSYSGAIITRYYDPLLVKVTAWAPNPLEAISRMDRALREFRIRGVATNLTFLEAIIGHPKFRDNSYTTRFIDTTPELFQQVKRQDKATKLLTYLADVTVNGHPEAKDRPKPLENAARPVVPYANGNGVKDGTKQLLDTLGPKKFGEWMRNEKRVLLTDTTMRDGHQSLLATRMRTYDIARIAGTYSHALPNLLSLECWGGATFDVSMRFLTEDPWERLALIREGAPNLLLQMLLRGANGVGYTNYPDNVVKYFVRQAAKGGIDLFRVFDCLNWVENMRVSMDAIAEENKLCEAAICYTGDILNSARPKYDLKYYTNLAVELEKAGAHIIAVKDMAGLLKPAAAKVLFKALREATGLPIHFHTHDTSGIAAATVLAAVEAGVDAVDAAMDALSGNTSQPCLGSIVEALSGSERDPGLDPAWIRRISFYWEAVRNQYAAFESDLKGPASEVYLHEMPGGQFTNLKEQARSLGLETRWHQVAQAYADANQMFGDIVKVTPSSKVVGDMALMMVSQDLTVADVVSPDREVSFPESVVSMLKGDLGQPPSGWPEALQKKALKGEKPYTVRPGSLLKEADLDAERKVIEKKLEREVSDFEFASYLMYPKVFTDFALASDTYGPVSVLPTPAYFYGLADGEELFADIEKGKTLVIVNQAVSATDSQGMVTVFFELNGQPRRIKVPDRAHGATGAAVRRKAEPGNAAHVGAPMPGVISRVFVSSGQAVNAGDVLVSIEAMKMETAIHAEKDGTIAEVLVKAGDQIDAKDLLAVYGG
Kind of assay: coupled spectrophotometric assay. In kind it is biochemical.

The target of assay [2] is T2, Rhizobium etli pyruvate carboxylase (RePC) (Rhizobium etli, UniProt Q2K340, R427S).
T2 sequence (Q2K340 1-1154 R427S): T1 sequence (Q2K340 1-1154 R472K) with R427S, K472R
As to the kind of experiment: coupled spectrophotometric assay. In kind it is biochemical.

A word on the Ki: it is the equilibrium dissociation constant of an inhibitor or competing ligand from its target. As for `N[C@@H](CC(=O)O)C(=O)O` [L-aspartate], the Ki in assay [1] and in assay [2] was 7 ± 1 mM throughout.
